Reference: patent US8389557B2, “Triazole derivatives useful as Axl inhibitors” (Rigel Pharmaceuticals, Inc., priority 2005, dated 2013)
pIC50: −log10 of the molar value. Each block holds one molecule with its values, some of them ahead of it.

Biological target: T1, Axl (Homo sapiens, UniProt P30530)
T1 construct: endogenous in cells; host or cells: HeLa cells
T1 sequence (P30530 26-894): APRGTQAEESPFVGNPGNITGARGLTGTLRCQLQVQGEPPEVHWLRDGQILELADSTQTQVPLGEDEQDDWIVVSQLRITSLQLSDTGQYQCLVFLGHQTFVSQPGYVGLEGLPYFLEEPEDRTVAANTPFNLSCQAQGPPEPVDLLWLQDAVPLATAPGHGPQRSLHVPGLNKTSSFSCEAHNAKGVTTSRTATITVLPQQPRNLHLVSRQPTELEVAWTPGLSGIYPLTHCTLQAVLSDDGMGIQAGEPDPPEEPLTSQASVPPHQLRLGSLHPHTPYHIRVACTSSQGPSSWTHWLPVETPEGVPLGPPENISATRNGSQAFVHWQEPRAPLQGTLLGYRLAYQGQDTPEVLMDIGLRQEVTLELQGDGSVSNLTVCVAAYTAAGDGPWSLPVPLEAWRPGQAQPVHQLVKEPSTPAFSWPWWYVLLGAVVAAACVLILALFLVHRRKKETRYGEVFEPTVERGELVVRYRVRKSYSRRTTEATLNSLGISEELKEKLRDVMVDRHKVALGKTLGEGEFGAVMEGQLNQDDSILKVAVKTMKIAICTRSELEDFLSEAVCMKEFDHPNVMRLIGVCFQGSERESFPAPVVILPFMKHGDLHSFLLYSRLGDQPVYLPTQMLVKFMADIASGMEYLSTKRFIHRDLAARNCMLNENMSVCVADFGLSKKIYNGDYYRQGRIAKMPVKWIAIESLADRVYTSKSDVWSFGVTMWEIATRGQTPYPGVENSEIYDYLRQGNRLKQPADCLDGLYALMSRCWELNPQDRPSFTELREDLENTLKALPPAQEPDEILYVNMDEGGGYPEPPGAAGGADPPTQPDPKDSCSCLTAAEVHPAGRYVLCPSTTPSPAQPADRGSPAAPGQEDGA
Test: Phospho-Akt in-cell Western assay (inhibition of Axl activity)
Type: cell-based
Outline: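 HeLa cells on poly-L-lysine, starved 24 h in 0.5% FCS DMEM with Axl/Fc 500 ng/mL, pre-treated with compound 1 h at 37° C. Axl stimulated 5 min by anti-Axl/anti-mouse antibody cross-linking. Fixed cells probed with anti-phospho-Akt and HRP secondary, chemiluminescence read.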

[1] = inhibition of Axl activity, Table 1
[2] = Table 5, Hela cells, Axl antibody cross-linking stimulation, phospho-Akt chemiluminescence
[3] = Table 2, Hela cells, Axl antibody cross-linking stimulation, phospho-Akt chemiluminescence
[4] = Table 7, Hela cells, Axl antibody cross-linking stimulation, phospho-Akt chemiluminescence
[5] = Table 8, Hela cells, Axl antibody cross-linking stimulation, phospho-Akt chemiluminescence

pIC50 [1]: < 4.70
SMILES: Nc1nc(Nc2ccc3c(c2)OCCO3)nn1C(=O)c1cccc(OCCN2CCOCC2)c1 [compound 150, 5-amino-3-(1,4-benzodioxan-6-yl)amino-1-[3-[2-(morpholin-4-yl)ethoxy]phenyl]carbonyl-1H-1,2,4-triazole]

SMILES: CC(C)Oc1ccc(C(=O)n2nc(Nc3ccc(OC4CCCC4)cc3)nc2N)cc1 [compound 151, 5-amino-3-[4-(cyclopentoxy)phenylamino]-1-(4-(iso-propoxy)phenyl)carbonyl-1H-1,2,4-triazole]
pIC50 [1]: < 4.70

pIC50 [1]: < 4.70
SMILES: CC(C)Oc1ccc(C(=O)n2nc(Nc3ccc(OCC(F)(F)F)cc3)nc2N)cc1 [compound 152, 5-amino-1-(4-(iso-propoxy)phenyl)carbonyl-3-[4-(2,2,2-trifluoroethoxy)phenylamino]-1H-1,2,4-triazole]

pIC50 [1]: 5.00 to 6.00
SMILES: Cc1cccc(C(=O)n2nc(Nc3cccc(OCC(=O)NCC(O)CO)c3)nc2N)c1 (centres unmarked) [compound 153, 5-amino-3-[3-(N-(2,3-dihydroxypropyl)amino)carbonylmethoxy]-phenylamino-1-(3-(methyl)phenyl)carbonyl-1H-1,2,4-triazole]

pIC50 [2]: 5.00 to 6.00
SMILES: Cc1cccc(C(=O)n2nc(Nc3ccc4[nH]ncc4c3)nc2N)c1 [compound 154, 5-amino-3-(indazol-5-yl)amino-1-(3-(methyl)phenyl)carbonyl-1H-1,2,4-triazole]

pIC50 [3]: < 4.70
SMILES: Nc1nc(Nc2ccc3c(c2)OCCO3)n(C(=O)c2cccc(OCc3ccccc3)c2)n1 [compound 155, 3-amino-1-(3-(benzyloxy)phenyl)carbonyl-5-(1,4-benzodioxan-6-yl)amino-1H-1,2,4-triazole]

pIC50 [1]: 4.70 to 5.00
SMILES: Nc1nc(Nc2ccc3c(c2)OCCO3)nn1C(=O)c1cccc(OCc2ccccc2)c1 [compound 156, 5-amino-1-(3-(benzyloxy)phenyl)carbonyl-3-(1,4-benzodioxan-6-yl)amino-1H-1,2,4-triazole]

pIC50 [1]: 5.00 to 6.00
SMILES: COC(=O)COc1ccc(Nc2nc(N)n(C(=O)c3ccc(OC(C)C)cc3)n2)cc1 [compound 157, 5-amino-1-(4-(iso-propoxy)phenyl)carbonyl-3-[4-(methoxycarbonylmethoxy)phenylamino]-1H-1,2,4-triazole]

pIC50 [1]: 5.00 to 6.00
SMILES: CC(C)Oc1ccc(C(=O)n2nc(Nc3ccc(OCCC4OCCO4)cc3)nc2N)cc1 [compound 158, 5-amino-3-[4-[2-(1,3-dioxolan-2-yl)ethoxy]phenylamino]-1-(4-(iso-propoxy)phenyl)carbonyl-1H-1,2,4-triazole]

pIC50 [1]: > 6.00
SMILES: CC(C)Oc1ccc(C(=O)n2nc(Nc3ccc(OCCN4CCOCC4)cc3)nc2N)cc1 [compound 159]

pIC50 [2]: 5.00 to 6.00
SMILES: Cc1cccc(C(=O)n2nc(Nc3ccc4cn[nH]c4c3)nc2N)c1 [compound 160, 5-amino-3-(indazol-6-yl)amino-1-(3-(methyl)phenyl)carbonyl-1H-1,2,4-triazole]

pIC50 [2]: < 4.70
SMILES: Cc1cccc(C(=O)n2nc(Nc3ccc4c(c3)NC(=O)CO4)nc2N)c1 [compound 161, 5-amino-3-(benzo[b][1,4]oxazin-3(4H)-on-6-yl)amino-1-(3-(methyl)phenyl)carbonyl-1H-1,2,4-triazole]

pIC50 [1]: 5.00 to 6.00
SMILES: Nc1nc(Nc2ccc3c(c2)OCCO3)nn1C(=O)c1ccc(O)cc1 [compound 162, 5-amino-3-(1,4-benzodioxan-6-yl)amino-1-(4-(hydroxy)phenyl)carbonyl-1H-1,2,4-triazole]

pIC50 [1]: > 6.00
SMILES: CC(C)Oc1ccc(C(=O)n2nc(Nc3ccc(OCCN4CCCCC4)cc3)nc2N)cc1 [compound 163]

pIC50 [3]: < 4.70
SMILES: Cc1cccc(C(=O)n2nc(N)nc2Nc2cccc(OCC(=O)NC3CCCCC3)c2)c1 [compound 164, 3-amino-5-[3-[cyclohexylaminocarbonylmethoxy]phenylamino]-1-(3-(methyl)phenyl)carbonyl-1H-1,2,4-triazole]

pIC50 [1]: < 4.70
SMILES: Cc1cccc(C(=O)n2nc(Nc3cccc(OCC(=O)NC4CCCCC4)c3)nc2N)c1 [compound 165, 5-amino-3-[3-[cyclohexylaminocarbonylmethoxy]phenylamino]-1-(3-(methyl)phenyl)carbonyl-1H-1,2,4-triazole]

SMILES: Nc1nc(Nc2ccc3c(c2)OCCO3)nn1C(=O)c1cccc(O)c1 [compound 166, 5-amino-3-(1,4-benzodioxan-6-yl)-amino-1-(3-(hydroxy)phenyl)carbonyl-1H-1,2,4-triazole]
pIC50 [1]: 5.00 to 6.00

pIC50 (Table 6, Hela cells, Axl antibody cross-linking stimulation, phospho-Akt chemiluminescence): < 4.70
SMILES: Cc1cccc(C(=O)n2nc(N)nc2Nc2ccc3c(c2)N(C(=O)OC(C)(C)C)CCO3)c1 [compound 167]

pIC50 [1]: > 6.00
SMILES: CC(C)Oc1cccc(C(=O)n2nc(Nc3ccc(OCCN4CCCCC4)cc3)nc2N)c1 [compound 168, 5-amino-1-(3-(iso-propoxy)phenyl)carbonyl-3-[4-[2-(piperidin-1-yl)ethoxy]phenylamino]-1H-1,2,4-triazole]

pIC50 [1]: > 6.00
SMILES: CC(C)Oc1cccc(C(=O)n2nc(Nc3ccc(OCCN4CCOCC4)cc3)nc2N)c1 [compound 169, 5-amino-1-(3-(iso-propoxy)phenyl)carbonyl-3-[4-[2-(morpholin-4-yl)ethoxy]phenylamino]-1H-1,2,4-triazole]

pIC50 [1]: 5.00 to 6.00
SMILES: CC(C)Oc1cccc(C(=O)n2nc(Nc3cccc(-c4cnco4)c3)nc2N)c1 [compound 170, 5-amino-1-(3-(iso-propoxy)phenyl)carbonyl-3-[3-(1,3-oxazol-5-yl)phenylamino]-1H-1,2,4-triazole]

pIC50 (Table 3, Hela cells, Axl antibody cross-linking stimulation, phospho-Akt chemiluminescence): 5.00 to 6.00
SMILES: CC(C)Oc1cncc(C(=O)n2nc(Nc3ccc(OCCN4CCOCC4)cc3)nc2N)c1 [compound 171, 5-amino-1-(3-(iso-propoxy)pyridin-5-yl)carbonyl-3-[4-[2-(morpholin-4-yl)ethoxy]phenylamino]-1H-1,2,4-triazole]

pIC50 [4]: < 4.70
SMILES: COc1ccc(Nc2nc(N)n(C(=O)Nc3ccc(Cl)cc3)n2)cc1 [compound 172, 5-amino-N-(4-chlorophenyl)-3-[4-(methoxy)phenylamino]-1H-1,2,4-triazole-1-carboxamide]

pIC50 [4]: < 4.70
SMILES: CC(=O)N(C)c1ccc(Nc2nc(N)n(C(=O)Nc3ccc(Cl)cc3)n2)cc1 [compound 174, 3-[4-(acetyl(methyl)amino)phenyl]amino-5-amino-N-(4-chlorophenyl)-1H-1,2,4-triazole-1-carboxamide]

pIC50 [4]: 5.00 to 6.00
SMILES: CC(=O)N(C)c1ccc(Nc2nc(N)n(C(=O)Nc3ccc4c(c3)OCO4)n2)cc1 [compound 175, 3-[4-(acetyl(methyl)amino)phenyl]amino-5-amino-N-(1,3-benzodioxol-5-yl)-1H-1,2,4-triazole-1-carboxamide]

pIC50 [5]: < 4.70
SMILES: CC(=O)N(C)c1ccc(Nc2nc(N)nn2C(=O)Nc2ccc3c(c2)OCO3)cc1 [compound 176, 5-[4-(acetyl(methyl)amino)phenyl]amino-3-amino-N-(1,3-benzodioxol-5-yl)-1H-1,2,4-triazole-1-carboxamide]

pIC50 [4]: < 4.70
SMILES: CC(=O)N(C)c1ccc(Nc2nc(N)n(C(=O)NC3CCCC3)n2)cc1 [compound 177, 3-[4-(acetyl(methyl)amino)phenyl]amino-5-amino-N-cyclopentyl-1H-1,2,4-triazole-1-carboxamide]

pIC50 [5]: < 4.70
SMILES: CC(=O)N(C)c1ccc(Nc2nc(N)nn2C(=O)NC2CCCC2)cc1 [compound 178, 5-[4-(acetyl(methyl)amino)phenyl]amino-3-amino-N-cyclopentyl-1H-1,2,4-triazole-1-carboxamide]

pIC50 [4]: 5.00 to 6.00
SMILES: CC(=O)N(C)c1ccc(Nc2nc(N)n(C(=O)Nc3ccc(C(C)C)cc3)n2)cc1 [compound 179, 3-[4-(acetyl(methyl)amino)phenyl]amino-5-amino-N-(4-(iso-propyl)phenyl)-1H-1,2,4-triazole-1-carboxamide]

SMILES: CCCCOc1ccc(NC(=O)n2nc(Nc3ccc(N(C)C(C)=O)cc3)nc2N)cc1 [compound 180, 3-[4-(acetyl(methyl)amino)phenyl]amino-5-amino-N-(4-(butoxy)phenyl)-1H-1,2,4-triazole-1-carboxamide]
pIC50 [4]: 5.00 to 6.00

SMILES: CCCCOc1ccc(NC(=O)n2nc(N)nc2Nc2ccc(OCCN3CCCCC3)cc2)cc1 [compound 182, 3-amino-N-(4-(butoxy)phenyl)-5-[4-[2-(piperidin-1-yl)ethoxy]phenylamino]-1H-1,2,4-triazole-1-carboxamide]
pIC50 [5]: < 4.70

pIC50 [5]: 5.00 to 6.00
SMILES: Cc1ccc(NC(=O)n2nc(N)nc2Nc2ccc(OCCN3CCCCC3)cc2)cc1 [compound 183, 3-amino-N-(4-(methyl)phenyl)-5-[4-[2-(piperidin-1-yl)ethoxy]phenylamino]-1H-1,2,4-triazole-1-carboxamide]
